In patent US12065442B2, “Tropomyosin receptor kinase (TRK) degradation compounds and methods of use” (Cullgen (Shanghai), Inc., priority 2018, dated 2024):

What follows are compounds tested on KM12 cells (assay: Cell viability assay (CellTiter-Glo) in KM12 cells). Conditions: Homo sapiens, 72 h; Table 2; KM12 cell viability, CellTiter-Glo, 3 days; read-out: IC50.
Format: cell-based
Work on `O=C1CCC(N2C(=O)c3cccc(NCCCC(=O)N4CCN(c5cccc(-c6cnc7ccc(N8CCC[C@@H]8c8cccc(F)c8)nn67)n5)CC4)c3C2=O)C(=O)N1` (stereo partly drawn) [CPD-013, 2-(2,6-Dioxopiperidin-3-yl)-4-((4-(4-(6-(6-((R)-2-(3-fluorophenyl)pyrrolidin-1-yl)imidazo[1,2-b]pyridazin-3-yl)pyridin-2-yl)piperazin-1-yl)-4-oxobutyl)amino)isoindoline-1,3-dione] yielded an IC50 of 10.2 nM.
`O=C1CCC(N2C(=O)c3cccc(NCCCCCCCC(=O)N4CCN(c5cccc(-c6cnc7ccc(N8CCC[C@@H]8c8cccc(F)c8)nn67)n5)CC4)c3C2=O)C(=O)N1` (stereo partly drawn) [CPD-024, 2-(2,6-Dioxopiperidin-3-yl)-4-((8-(4-(6-(6-((R)-2-(3-fluorophenyl)pyrrolidin-1-yl)imidazo[1,2-b]pyridazin-3-yl)pyridin-2-yl)piperazin-1-yl)-8-oxooctyl)amino)isoindoline-1,3-dione] showed an IC50 of 10 nM.
`Cc1ncsc1-c1ccc(CNC(=O)[C@@H]2C[C@@H](O)CN2C(=O)[C@@H](NC(=O)COCCOCCOCCOCCOCC(=O)N2CCN(c3ccc(C(=O)Nc4n[nH]c5ccc(Cc6cc(F)cc(F)c6)cc45)c(NC4CCOCC4)c3)CC2)C(C)(C)C)cc1` [CPD-040, (2S,4R)-1-((S)-2-(tert-butyl)-20-(4-(4-((5-(3,5-Difluorobenzyl)-1H-indazol-3-yl)carbamoyl)-3-((tetrahydro-2H-pyran-4-yl)amino)phenyl)piperazin-1-yl)-4,20-dioxo-6,9,12,15,18-pentaoxa-3-azaicosanoyl)-4-hydroxy-N-(4-(4-methylthiazol-5-yl)benzyl)pyrrolidine-2-carboxamide] was tested, and the IC50 was 600 nM.
With `Cc1ncsc1-c1ccc(CNC(=O)[C@@H]2C[C@@H](O)CN2C(=O)[C@@H](NC(=O)CCOCCOCCOCCC(=O)N2CCN(c3cccc(-c4cnc5ccc(N6CCC[C@@H]6c6cccc(F)c6)nn45)n3)CC2)C(C)(C)C)cc1` [CPD-016, (2S,4R)-1-((S)-2-(tert-butyl)-16-(4-(6-(6-((R)-2-(3-Fluorophenyl)pyrrolidin-1-yl)imidazo[1,2-b]pyridazin-3-yl)pyridin-2-yl)piperazin-1-yl)-4,16-dioxo-7,10,13-trioxa-3-azahexadecanoyl)-4-hydroxy-N-(4-(4-methylthiazol-5-yl)benzyl)pyrrolidine-2-carboxamide] the IC50 was 150 nM.
With `O=C1CCC(N2C(=O)c3cccc(NCCOCCC(=O)N4CCN(c5ccc(C(=O)Nc6n[nH]c7ccc(Cc8cc(F)cc(F)c8)cc67)c(NC6CCOCC6)c5)CC4)c3C2=O)C(=O)N1` (stereo not shown) [CPD-030, N-(5-(3,5-Difluorobenzyl)-1H-indazol-3-yl)-4-(4-(3-(2-((2-(2,6-dioxopiperidin-3-yl)-1,3-dioxoisoindolin-4-yl)amino)ethoxy)propanoyl)piperazin-1-yl)-2-((tetrahydro-2H-pyran-4-yl)amino)benzamide] the IC50 was 20.5 nM.
`Cc1ncsc1-c1ccc(CNC(=O)[C@@H]2C[C@@H](O)CN2C(=O)[C@@H](NC(=O)CCOCCC(=O)N2CCN(c3cccc(-c4cnc5ccc(N6CCC[C@@H]6c6cccc(F)c6)nn45)n3)CC2)C(C)(C)C)cc1` [CPD-007, (2S,4R)-1-((S)-2-(3-(3-(4-(6-(6-((R)-2-(3-Fluorophenyl)pyrrolidin-1-yl)imidazo[1,2-b]pyridazin-3-yl)pyridin-2-yl)piperazin-1-yl)-3-oxopropoxy)propanamido)-3,3-dimethylbutanoyl)-4-hydroxy-N-(4-(4-methylthiazol-5-yl)benzyl)pyrrolidine-2-carboxamide] gave an IC50 of over 1000 nM.
With `Cc1ncsc1-c1ccc(CNC(=O)[C@@H]2C[C@@H](O)CN2C(=O)[C@@H](NC(=O)CCCCCCCCC(=O)N2CCN(c3cccc(-c4cnc5ccc(N6CCC[C@@H]6c6cccc(F)c6)nn45)n3)CC2)C(C)(C)C)cc1` [CPD-017, (2S,4R)-1-((S)-2-(10-(4-(6-(6-((R)-2-(3-Fluorophenyl)pyrrolidin-1-yl)imidazo[1,2-b]pyridazin-3-yl)pyridin-2-yl)piperazin-1-yl)-10-oxodecanamido)-3,3-dimethylbutanoyl)-4-hydroxy-N-(4-(4-methylthiazol-5-yl)benzyl)pyrrolidine-2-carboxamide] the IC50 was 145 nM.
For `Cc1ncsc1-c1ccc(CNC(=O)[C@@H]2C[C@@H](O)CN2C(=O)[C@@H](NC(=O)CCOCCOCCOCCOCCOCCC(=O)N2CCN(c3cccc(-c4cnc5ccc(N6CCC[C@@H]6c6cccc(F)c6)nn45)n3)CC2)C(C)(C)C)cc1` [CPD-005, (2S,4R)-1-((S)-2-(tert-butyl)-22-(4-(6-(6-((R)-2-(3-Fluorophenyl)pyrrolidin-1-yl)imidazo[1,2-b]pyridazin-3-yl)pyridin-2-yl)piperazin-1-yl)-4,22-dioxo-7,10,13,16,19-pentaoxa-3-azadocosanoyl)-4-hydroxy-N-(4-(4-methylthiazol-5-yl)benzyl)pyrrolidine-2-carboxamide], the IC50 was over 1000 nM.

Same assay, conditions: Homo sapiens, 72 h; Table 3; KM12 cell viability, CellTiter-Glo, 3 days; read-out: IC50
`O=C(CN1CCN(c2ccc(C(=O)Nc3n[nH]c4ccc(Cc5cc(F)cc(F)c5)cc34)c(NC3CCOCC3)c2)CC1)NCCCCCCNc1cccc2c1C(=O)N(C1CCC(=O)NC1=O)C2=O` (stereo not shown) [TR-147, N-(5-(3,5-Difluorobenzyl)-1H-indazol-3-yl)-4-(4-(2-((6-((2-(2,6-dioxopiperidin-3-yl)-1,3-dioxoisoindolin-4-yl)amino)hexyl)amino)-2-oxoethyl)piperazin-1-yl)-2-((tetrahydro-2H-pyran-4-yl)amino)benzamide] showed an IC50 of 6.4 nM.
In the case of `O=C1CCC(N2C(=O)c3ccc(NCCCCCCCC(=O)N4CCN(c5ccc(C(=O)Nc6n[nH]c7ccc(Cc8cc(F)cc(F)c8)cc67)c(NC6CCOCC6)c5)CC4)cc3C2=O)C(=O)N1` (stereo not shown) [TR-136, N-(5-(3,5-Difluorobenzyl)-1H-indazol-3-yl)-4-(4-(8-((2-(2,6-dioxopiperidin-3-yl)-1,3-dioxoisoindolin-5-yl)amino)octanoyl)piperazin-1-yl)-2-((tetrahydro-2H-pyran-4-yl)amino)benzamide], the IC50 is reported as 23.6 nM.
With `O=C(CN1CCN(c2ccc(C(=O)Nc3n[nH]c4ccc(Cc5cc(F)cc(F)c5)cc34)c(NC3CCOCC3)c2)CC1)NCCNc1ccc2c(c1)C(=O)N(C1CCC(=O)NC1=O)C2=O` (stereo not shown) [TR-165, N-(5-(3,5-Difluorobenzyl)-1H-indazol-3-yl)-4-(4-(2-((2-((2-(2,6-dioxopiperidin-3-yl)-1,3-dioxoisoindolin-5-yl)amino)ethyl)amino)-2-oxoethyl)piperazin-1-yl)-2-((tetrahydro-2H-pyran-4-yl)amino)benzamide] the IC50 was 3.5 nM.
`O=C(CN1CCN(c2cccc(-c3cnc4ccc(N5CCC[C@@H]5c5cccc(F)c5)nn34)n2)CC1)NCCNc1ccc2c(c1)C(=O)N(C1CCC(=O)NC1=O)C2=O` (stereo partly drawn) [TR-130, N-(2-((2-(2,6-dioxopiperidin-3-yl)-1,3-dioxoisoindolin-5-yl)amino)ethyl)-2-(4-(6-(6-((R)-2-(3-fluorophenyl)pyrrolidin-1-yl)imidazo[1,2-b]pyridazin-3-yl)pyridin-2-yl)piperazin-1-yl)acetamide] was tested, and the IC50 was 0.9 nM.
In the case of `O=C(CN1CCN(c2ccc(C(=O)Nc3n[nH]c4ccc(Cc5cc(F)cc(F)c5)cc34)c(NC3CCOCC3)c2)CC1)NCCOCCOCCOCCOCCOCCNc1ccc2c(c1)C(=O)N(C1CCC(=O)NC1=O)C2=O` (stereo not shown) [TR-166, N-(5-(3,5-Difluorobenzyl)-1H-indazol-3-yl)-4-(4-(20-((2-(2,6-dioxopiperidin-3-yl)-1,3-dioxoisoindolin-5-yl)amino)-2-oxo-6,9,12,15,18-pentaoxa-3-azaicosyl)piperazin-1-yl)-2-((tetrahydro-2H-pyran-4-yl)amino)benzamide], the IC50 is reported as 4.4 nM.
For `O=C1CCC(N2C(=O)c3ccc(NCCCCC(=O)N4CCN(c5cccc(-c6cnc7ccc(N8CCC[C@@H]8c8cccc(F)c8)nn67)n5)CC4)cc3C2=O)C(=O)N1` (stereo partly drawn) [TR-115, 2-(2,6-Dioxopiperidin-3-yl)-5-((5-(4-(6-(6-((R)-2-(3-fluorophenyl)pyrrolidin-1-yl)imidazo[1,2-b]pyridazin-3-yl)pyridin-2-yl)piperazin-1-yl)-5-oxopentyl)amino)isoindoline-1,3-dione], the IC50 was 0.9 nM.

Same assay, conditions: Homo sapiens, 72 h; Table 4; KM12 cell viability, CellTiter-Glo, 3 days; read-out: IC50
`O=C1CCC(N2Cc3cc(NC4CCN(c5cccc(-c6cnc7ccc(N8CCC[C@@H]8c8cccc(F)c8)nn67)n5)CC4)ccc3C2=O)C(=O)N1` (stereo partly drawn) [TR-212, 3-(5-((1-(6-(6-((R)-2-(3-fluorophenyl)pyrrolidin-1-yl)imidazo[1,2-b]pyridazin-3-yl)pyridin-2-yl)piperidin-4-yl)amino)-1-oxoisoindolin-2-yl)piperidine-2,6-dione] gave an IC50 of 15.8 nM.
Work on `O=C1CCC(N2Cc3cc(C#CC4CN(c5cccc(-c6cnc7ccc(N8CCC[C@@H]8c8cccc(F)c8)nn67)n5)C4)ccc3C2=O)C(=O)N1` (stereo partly drawn) [TR-219, 3-(5-((1-(6-(6-((R)-2-(3-Fluorophenyl)pyrrolidin-1-yl)imidazo[1,2-b]pyridazin-3-yl)pyridin-2-yl)azetidin-3-yl)ethynyl)-1-oxoisoindolin-2-yl)piperidine-2,6-dione] yielded an IC50 of 44.9 nM.
For `Cn1c(=O)n(C2CCC(=O)NC2=O)c2cccc(NCCCN3CCN(c4cccc(-c5cnc6ccc(N7CCC[C@@H]7c7cccc(F)c7)nn56)n4)CC3)c21` (stereo partly drawn) [TR-217, 3-[4-[3-[4-[6-[6-[(2R)-2-(3-Fluorophenyl)pyrrolidin-1-yl]imidazo[1,2-b]pyridazin-3-yl]-2-pyridyl]piperazin-1-yl]propylamino]-3-methyl-2-oxo-benzimidazol-1-yl]piperidine-2,6-dione], the IC50 was 4 nM.
`O=C1CCC(N2C[C@H](c3cccc(C#CCN4CCN(c5cccc(-c6cnc7ccc(N8CCC[C@@H]8c8cccc(F)c8)nn67)n5)CC4)c3)OC2=O)C(=O)N1` (stereo partly drawn) [TR-223, 3-((S)-5-(3-(3-(4-(6-(6-((R)-2-(3-Fluorophenyl)pyrrolidin-1-yl)imidazo[1,2-b]pyridazin-3-yl)pyridin-2-yl)piperazin-1-yl)prop-1-yn-1-yl)phenyl)-2-oxooxazolidin-3-yl)piperidine-2,6-dione] showed an IC50 of 11.3 nM.
`O=C1CCC(N2C(=O)c3ccc(NC(=O)CN4CCN(c5cccc(-c6cnc7ccc(N8CCC[C@@H]8c8cccc(F)c8)nn67)n5)CC4)cc3C2=O)C(=O)N1` (stereo partly drawn) [TR-233, N-(2-(2,6-Dioxopiperidin-3-yl)-1,3-dioxoisoindolin-5-yl)-2-(4-(6-(6-((R)-2-(3-fluorophenyl)pyrrolidin-1-yl)imidazo[1,2-b]pyridazin-3-yl)pyridin-2-yl)piperazin-1-yl)acetamide] showed an IC50 of 5 nM.
